These results are taken from patent US12662489B2 (Sitryx Therapeutics Limited, priority 2023, dated 2026).

Test [1] concerns the target T1, MTHFD1 recombinant human enzyme (Homo sapiens, UniProt P11586).
T1 sequence (P11586 2-291 limits assumed): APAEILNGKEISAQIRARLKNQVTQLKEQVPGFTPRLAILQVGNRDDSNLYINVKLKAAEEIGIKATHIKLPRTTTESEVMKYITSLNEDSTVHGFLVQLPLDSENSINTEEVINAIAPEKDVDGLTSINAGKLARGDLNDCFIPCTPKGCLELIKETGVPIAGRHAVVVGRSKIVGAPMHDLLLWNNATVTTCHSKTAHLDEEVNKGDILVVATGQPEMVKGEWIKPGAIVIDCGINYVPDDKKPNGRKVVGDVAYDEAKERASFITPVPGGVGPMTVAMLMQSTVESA
The experiment in a line: MTHFD1 inhibition assay (NAD(P)H-Glo luminescence). The following applies: MTHFD1 IC50, recombinant human enzyme 200 nM, NADP, band.

The target of test [2] is T2, MTHFD2 recombinant human enzyme (Homo sapiens, UniProt P13995).
T2 sequence (P13995 36-350): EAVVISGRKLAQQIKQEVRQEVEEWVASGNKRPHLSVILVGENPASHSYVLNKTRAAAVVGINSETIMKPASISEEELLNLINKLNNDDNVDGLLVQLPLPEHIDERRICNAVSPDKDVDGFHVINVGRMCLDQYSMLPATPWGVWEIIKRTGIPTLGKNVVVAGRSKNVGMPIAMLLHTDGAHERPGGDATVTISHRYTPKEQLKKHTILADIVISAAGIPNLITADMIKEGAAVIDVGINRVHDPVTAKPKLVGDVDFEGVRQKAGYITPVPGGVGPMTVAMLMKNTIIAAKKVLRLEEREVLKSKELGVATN
The experiment in a line: MTHFD2 inhibition assay (NAD(P)H-Glo luminescence). The following applies: for MTHFD1/MTHFD2 IC50 ratio: selectivity of MTHFD2 inhibition over MTHFD1, band.

The term IC50 denotes the concentration at which inhibition is half-maximal. With `CCOc1c(C(=O)NS(=O)(=O)N2CCCC2)ccc(C(=O)N2CCc3c(c(=O)oc4c(C)c(N5CCN(C)[C@@H](COC)C5)cc(Cl)c34)C2)c1F` [Example 258, (R)-4-(10-chloro-8-(3-(methoxymethyl)-4-methylpiperazin-1-yl)-7-methyl-5-oxo-1,3,4,5-tetrahydro-2H-chromeno[3,4-c]pyridine-3-carbonyl)-2-ethoxy-3-fluoro-N-(pyrrolidin-1-ylsulfonyl)benzamide], the concentration for half-maximal inhibition (IC50) in test [1] was in the range of 10 to 100 nM. Besides, in test [2], the IC50 lay in the range of 1 to 10 nM and the “MTHFD1/MTHFD2 IC50 ratio” value is “H (>9.0 to 30)”.
With `COC[C@H]1CN(c2cc(C)c3c4c(c(=O)oc3c2C)CN(C(=O)c2ccc(C(=O)NS(=O)(=O)N(C)C3CCCC3)c(OC)c2F)CC4)CCN1C` [Example 238], the concentration for half-maximal inhibition (IC50) lay within 100 to 1000 nM in test [1] and 10 to 100 nM in test [2]. For the same molecule, in test [2], the “MTHFD1/MTHFD2 IC50 ratio” value is listed as “H (>9.0 to 30)”.
In the same order, the values of `COC[C@H]1CN(c2cc(C)c3c4c(c(=O)oc3c2C)CN(C(=O)c2ccc(C(=O)NS(=O)(=O)N(C)C)c(N3CCC3)c2)CC4)CCN1C` [Example 89, (R)-2-(azetidin-1-yl)-N-(N,N-dimethylsulfamoyl)-4-(8-(3-(methoxymethyl)-4-methylpiperazin-1-yl)-7,10-dimethyl-5-oxo-1,3,4,5-tetrahydro-2H-chromeno[3,4-c]pyridine-3-carbonyl)benzamide] are 1 to 10 nM, 1 to 10 nM and “F (<3)”.
In the same order, the values of `COC[C@H]1CN(c2ccc3c4c(c(=O)oc3c2Cl)CN(C(=O)c2ccc(C(=O)NS(=O)(=O)N3CCCC3)c(O[C@@H]3C[C@@H]5C[C@@H]5C3)c2F)CC4)CCN1C` [Example 62, 2-(((1R,3r,5S)-bicyclo[3.1.0]hexan-3-yl)oxy)-4-(7-chloro-8-((R)-3-(methoxymethyl)-4-methylpiperazin-1-yl)-5-oxo-1,3,4,5-tetrahydro-2H-chromeno[3,4-c]pyridine-3-carbonyl)-3-fluoro-N-(pyrrolidin-1-ylsulfonyl)benzamide] are 1 to 10 nM, 10 to 100 nM and “F (<3)”.
For `CCc1c(C(=O)NS(=O)(=O)N2C3CCC2CC3)ccc(C(=O)N2CCc3c(c(=O)oc4c(C)c(N5CCN(C)[C@@H](COC)C5)cc(C)c34)C2)c1F` [Example 242], the IC50 in test [1] is 100 to 1000 nM. For the same molecule, in test [2], the half-maximal inhibitory concentration (IC50) lay in the range of 10 to 100 nM and the “MTHFD1/MTHFD2 IC50 ratio” value was “H (>9.0 to 30)”.
As for `COC[C@H]1CN(c2cc(C)c3c4c(c(=O)oc3c2C)CN(C(=O)c2ccc(C(=O)NS(=O)(=O)N(C)C)c(N3CC5CCC3C5)c2)CC4)CCN1C` (stereo partly drawn) [Example 116, 2-(2-azabicyclo[2.2.1]heptan-2-yl)-N-(N,N-dimethylsulfamoyl)-4-(8-((R)-3-(methoxymethyl)-4-methylpiperazin-1-yl)-7,10-dimethyl-5-oxo-1,3,4,5-tetrahydro-2H-chromeno[3,4-c]pyridine-3-carbonyl)benzamide], in test [1], the IC50 is 1 to 10 nM. In addition, in test [2], the IC50 is 10 to 100 nM and the “MTHFD1/MTHFD2 IC50 ratio” value was “F (<3)”.
As for `COC[C@H]1CN(c2ccc3c4c(c(=O)oc3c2C)CN(C(=O)c2ccc(C(=O)NS(=O)(=O)C3(C)CC3)c(OC3CCCC3)c2)CC4)CCN1C` [Example 8, (R)-2-(cyclopentyloxy)-4-(8-(3-(methoxymethyl)-4-methylpiperazin-1-yl)-7-methyl-5-oxo-1,3,4,5-tetrahydro-2H-chromeno[3,4-c]pyridine-3-carbonyl)-N-((1-methylcyclopropyl)sulfonyl)benzamide], the concentration for half-maximal inhibition (IC50) in test [1] and in test [2] was 10 to 100 nM throughout. For the same molecule, the “MTHFD1/MTHFD2 IC50 ratio” value in test [2] is reported as “F (<3)”.
With `COC[C@H]1CN(c2cc(C)c3c4c(c(=O)oc3c2C)CN(C(=O)c2ccc(C(=O)NS(=O)(=O)N3CCC(F)CC3)c(OC)c2F)CC4)CCN1C` [Example 240], the IC50 lay within 100 to 1000 nM in test [1] and 10 to 100 nM in test [2]. Moreover, the “MTHFD1/MTHFD2 IC50 ratio” value in test [2] is recorded as “H (>9.0 to 30)”.
Take `COC[C@H]1CN(c2cc(C)c3c4c(c(=O)oc3c2C)CN(C(=O)c2ccc(OC3CCC3)c(C(=O)NS(=O)(=O)N3CCCC3)c2)CC4)CCN1C` [Example 163, (R)-2-cyclobutoxy-5-(8-(3-(methoxymethyl)-4-methylpiperazin-1-yl)-7,10-dimethyl-5-oxo-1,3,4,5-tetrahydro-2H-chromeno[3,4-c]pyridine-3-carbonyl)-N-(pyrrolidin-1-ylsulfonyl)benzamide]: the IC50 in test [1] was more than 5000 nM; in test [2] it was 100 to 1000 nM. Also, the “MTHFD1/MTHFD2 IC50 ratio” value in test [2] is “H (>9.0 to 30)”.
Turning to `CCOc1cc(C(=O)N2CCc3c(c(=O)oc4c(C)c(N5CCN(C)[C@@H](COC)C5)cc(Cl)c34)C2)c(F)cc1C(=O)NS(=O)(=O)N1CC2(CCC2)C1` [Example 300, (R)-N-((2-azaspiro[3.3]heptan-2-yl)sulfonyl)-4-(10-chloro-8-(3-(methoxymethyl)-4-methylpiperazin-1-yl)-7-methyl-5-oxo-1,3,4,5-tetrahydro-2H-chromeno[3,4-c]pyridine-3-carbonyl)-2-ethoxy-5-fluorobenzamide], the IC50 lay within 100 to 1000 nM in test [1] and 10 to 100 nM in test [2].
With `COC[C@H]1CN(c2ccc3c4c(c(=O)oc3c2C)CN(C(=O)c2cc(N(C)C)c(C(=O)NS(=O)(=O)N3CCC5(CC3)CC5)cc2Cl)CC4)CCN1C` [Example 190, (R)-N-((6-azaspiro[2.5]octan-6-yl)sulfonyl)-5-chloro-2-(dimethylamino)-4-(8-(3-(methoxymethyl)-4-methylpiperazin-1-yl)-7-methyl-5-oxo-1,3,4,5-tetrahydro-2H-chromeno[3,4-c]pyridine-3-carbonyl)benzamide], in test [1], the IC50 is more than 5000 nM. For the same molecule, in test [2], the IC50 lay within 100 to 1000 nM and the “MTHFD1/MTHFD2 IC50 ratio” value was “H (>9.0 to 30)”.
The corresponding values for `CCOc1c(C(=O)NS(=O)(=O)N2C3CCC2CC3)ccc(C(=O)N2CCc3c(c(=O)oc4c(Cl)c(N5CCN(C)[C@@H](COC)C5)ccc34)C2)c1F` [Example 209, (R)-N-((7-azabicyclo[2.2.1]heptan-7-yl)sulfonyl)-4-(7-chloro-8-(3-(methoxymethyl)-4-methylpiperazin-1-yl)-5-oxo-1,3,4,5-tetrahydro-2H-chromeno[3,4-c]pyridine-3-carbonyl)-2-ethoxy-3-fluorobenzamide] are 10 to 100 nM, 10 to 100 nM and “F (<3)”.
In the same order, the values of `COC[C@H]1CN(c2cc(C)c3c4c(c(=O)oc3c2C)CN(C(=O)c2cc(F)c(C(=O)NS(=O)(=O)N(C)C)c(N3CC5CC5C3)c2)CC4)CCN1C` (stereo partly drawn) [Example 28, 2-(3-azabicyclo[3.1.0]hexan-3-yl)-N-(N,N-dimethylsulfamoyl)-6-fluoro-4-(8-((R)-3-(methoxymethyl)-4-methylpiperazin-1-yl)-7,10-dimethyl-5-oxo-1,3,4,5-tetrahydro-2H-chromeno[3,4-c]pyridine-3-carbonyl)benzamide] are 1 to 10 nM, 1 to 10 nM and “F (<3)”.
As for `COC[C@H]1CN(c2cc(C)c3c4c(c(=O)oc3c2C)CN(C(=O)c2ccc(C(=O)NS(=O)(=O)C3(C)CC3)c(N3C5CCC3CC5)c2F)CC4)CCN1C` [Example 73, (R)-2-(7-azabicyclo[2.2.1]heptan-7-yl)-3-fluoro-4-(8-(3-(methoxymethyl)-4-methylpiperazin-1-yl)-7,10-dimethyl-5-oxo-1,3,4,5-tetrahydro-2H-chromeno[3,4-c]pyridine-3-carbonyl)-N-((1-methylcyclopropyl)sulfonyl)benzamide], the IC50 in test [1] and in test [2] was 1 to 10 nM in each case.
On to `COC[C@H]1CN(c2cc(C)c3c4c(c(=O)oc3c2)CN(C(=O)c2ccc(C(=O)NS(=O)(=O)N3CCCC3)c(OC3CCCC3)c2F)CC4)CCN1C` [Example 187, (R)-2-(cyclopentyloxy)-3-fluoro-4-(8-(3-(methoxymethyl)-4-methylpiperazin-1-yl)-10-methyl-5-oxo-1,3,4,5-tetrahydro-2H-chromeno[3,4-c]pyridine-3-carbonyl)-N-(pyrrolidin-1-ylsulfonyl)benzamide], for which the IC50 in test [1] is more than 5000 nM. In test [2], the IC50 was 100 to 1000 nM and the “MTHFD1/MTHFD2 IC50 ratio” value is “H (>9.0 to 30)”.
With `COC[C@H]1CN(c2cc(C)c3c4c(c(=O)oc3c2C)CN(C(=O)c2ccc(C(=O)NS(=O)(=O)N(C)C)c(OC3C5CC6CC(C5)CC3C6)c2)CC4)CCN1C` (stereo partly drawn) [Example 100, 2-((adamantan-2-yl)oxy)-N-(N,N-dimethylsulfamoyl)-4-(8-((R)-3-(methoxymethyl)-4-methylpiperazin-1-yl)-7,10-dimethyl-5-oxo-1,3,4,5-tetrahydro-2H-chromeno[3,4-c]pyridine-3-carbonyl)benzamide], in test [1], the IC50 lay in the range of 10 to 100 nM. In test [2], the IC50 is 10 to 100 nM and the “MTHFD1/MTHFD2 IC50 ratio” value is “F (<3)”.
